Reference: US10092535B2, “Treatment of nervous system disorders using combinations of RXR agonists and thyroid hormones” (IO Therapeutics, Inc., priority 2015, dated 2018)
Entries after “also recorded” stand apart in the source; their conditions may differ.

Columns and labels:
[1] = test system: mouse oligodendrocyte progenitor cells (OPCs); assay: Mouse OPC differentiation with IRX4204 and T3; format: cell-based; settings: 5-day treatment, 96-well plates
Protocol: OPCs were derived from plp-EGFP expressing mice.
Therapeutic agents were tested in 96-well plates (6 wells per concentration). […] All media contained 0.1% DMSO. At the end of the 5-day treatment, cells were imaged on Cellomics in two channels and algorithms were used to count nuclei and EGFP+oligodendrocytes.

EAE in SJL mice = EAE in SJL mice (PLP peptide); format: in vivo
Protocol: To determine whether a RXR agonist can attenuate multiple sclerosis, SJL mice were immunized to induce EAE by s.c. injection at the base of their spine with 200 μL of adjuvant containing 200 μg proteolipid proteins (139-151) (PLP peptide; Peptides International, Louisville, Ky.) and 400 μg of non-viable M. tuberculosis H37 desiccate emulsified in a mixture of incomplete Freund's adjuvant and PBS. Mice were also given 150 ng of pertussis toxin in PBS i.p. on the same day as PLP emulsion injection and 2 days later. […] Mice were scored using the scale described in Example 3.

Nurr1/RXR heterodimer = Nurr1/RXR heterodimer (Homo sapiens, UniProt P19793); assay: Nurr1/RXR transactivation assay (COS 7 cells, NBRE-tk-luc); format: cell-based; settings: Nurr-1 with or without RXRα
Chain of Nurr1/RXR heterodimer (P43354 whole entry partner, one chain of several): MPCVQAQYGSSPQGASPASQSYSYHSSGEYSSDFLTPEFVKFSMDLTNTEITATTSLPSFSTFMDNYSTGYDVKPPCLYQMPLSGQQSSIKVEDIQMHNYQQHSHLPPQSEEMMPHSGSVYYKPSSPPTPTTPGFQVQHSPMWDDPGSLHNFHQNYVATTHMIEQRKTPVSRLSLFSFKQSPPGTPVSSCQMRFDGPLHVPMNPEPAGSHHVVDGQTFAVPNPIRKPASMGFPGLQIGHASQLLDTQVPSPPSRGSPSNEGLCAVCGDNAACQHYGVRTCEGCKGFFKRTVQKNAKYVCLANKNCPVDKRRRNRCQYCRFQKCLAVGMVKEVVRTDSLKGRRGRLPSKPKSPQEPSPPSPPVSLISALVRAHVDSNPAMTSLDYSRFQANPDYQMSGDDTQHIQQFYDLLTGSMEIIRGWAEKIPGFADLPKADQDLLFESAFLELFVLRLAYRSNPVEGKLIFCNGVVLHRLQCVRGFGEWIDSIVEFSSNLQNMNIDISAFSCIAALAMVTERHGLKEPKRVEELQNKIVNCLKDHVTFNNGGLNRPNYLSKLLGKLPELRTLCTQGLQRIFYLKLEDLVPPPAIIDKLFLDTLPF
Excerpt: (§1) For PPARγ: CV-1 cells were transfected with 3×(rAOX/DR1)-tk-Luc reporter gene and an expression vector for PPARγ. For FXR:CV-1 cells were transfected with 3×(IBABP/IRI)-tk-Luc reporter gene and vectors for FXR and RXRα. For LXR:CV-1 cells were transfected with 3×(PLTP/LXRE)-tk-Luc reporter gene with vectors for LXRα or LXRβ. For Nurr1: COS 7 cells were transfected with 3×NBRE-tk-luc reporter gene and full length Nurr-1 with or without full-length RXRα plasmid. […] Luciferase data were normalized to co-transfected β-gal activity. Luciferase activity was expressed as percent of maximal activity obtained using specific agonists. Rosiglitazone (PPARγ), GW4064 (FXR), T0901317 (LXR).

[2] = test system: focal demyelination of caudal cerebellar peduncles in rats; assay: Ethidium bromide focal demyelination in one year old rats; format: in vivo; settings: IRX4204 10 mg/kg/day oral, thyroxine 20 ng/g s.c., day 7 to 21
Protocol: The experiment uses rats of relatively advanced age (1 year) since such rats undergo remyelination in a less efficient manner, thereby providing data that are more relevant to the clinical treatment of human patients with multiple sclerosis or other demyelination disorders.
Focal demyelination is induced in one year old rats (approximately 300 g in weight) by injecting stereotactically 5 μl of ethidium bromide solution (0.01% vol/vol in saline) in a bilateral manner into the caudal cerebellar peduncles (CCP). […] The rats are killed on day 24 post-ethidium bromide treatment for analysis of remyelination by quantitative polymerase chain reaction (qPCR) and microscopy.

LXRα/RXR = LXRα/RXR transactivation assay (CV-1 cells); format: cell-based; settings: 20 hr; relative to T0901317
Excerpt: as §1

RXRα = target: T1, RXRα (Homo sapiens, UniProt P19793); settings: transactivation assays
T1 sequence (P19793 1-462): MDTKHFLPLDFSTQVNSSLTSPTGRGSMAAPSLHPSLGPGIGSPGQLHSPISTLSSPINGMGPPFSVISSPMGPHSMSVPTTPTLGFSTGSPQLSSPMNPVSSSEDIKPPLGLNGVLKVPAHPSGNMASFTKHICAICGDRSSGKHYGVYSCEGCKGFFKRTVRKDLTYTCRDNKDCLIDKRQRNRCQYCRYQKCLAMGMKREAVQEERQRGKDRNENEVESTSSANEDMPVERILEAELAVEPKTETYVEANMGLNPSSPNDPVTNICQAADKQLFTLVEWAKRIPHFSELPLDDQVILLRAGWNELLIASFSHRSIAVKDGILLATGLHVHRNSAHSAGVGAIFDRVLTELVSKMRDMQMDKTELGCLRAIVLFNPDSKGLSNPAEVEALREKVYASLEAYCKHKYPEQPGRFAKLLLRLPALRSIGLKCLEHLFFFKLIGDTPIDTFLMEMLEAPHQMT
Protocol: To determine whether a RXR agonist can mediate its effects via RXRα receptor homodimers, RXRβ receptor homodimers, RXRγ receptor homodimers, or any combination thereof, or the corresponding RAR/RXR heterodimers, receptor-mediated transactivation assays were performed. For transactivation assays assessing RXR homodimer signaling, CV-1 cells were transfected with 1) an expression construct including a full length RXRα, RXRβ, or RXRγ; and 2) a rCRBPII/RXRE-tk-Luc reporter construct that included RXR homodimer-specific RXRE/DR1 responsive element linked to a luciferase gene. For transactivation assays assessing RAR/RXR heterodimer signaling, CV-1 cells were transfected with 1) an expression construct comprising a fusion protein including an estrogen receptor (ER) DNA binding domain linked to the ligand binding domain of RARα, RARβ, or RARγ and 2) a ERE-tk-Luc reporter construct that included an estrogen receptor responsive element linked to a luciferase gene. […] Data are mean values±SE from five independent experiments.

[3] = test system: cuprizone+rapamycin demyelination in C57BL/6J mice; assay: Cuprizone/rapamycin 12-week demyelination, 6-week remyelination treatment; format: in vivo
Excerpt: All animals were sacrificed after 12 weeks of CR or after further 6 weeks of treatment to evaluate myelin in white matter (corpus callosum) and gray matter (hippocampus and cortex). In addition, the size of myelinated axons was quantified and the large myelinated axons were further assessed by 3D-electron microscopy (3D-EM). A total of 40 animals were included in the study, where all 40 animals received CR demyelination for 12 weeks. After demyelination, a subset (n=10) of animals are sacrificed to serve as controls to assess baseline demyelination. […] Floating brain sections are immunostained with myelin prolipid protein (PLP) to visualize and quantify myelin in gray matter, hippocampus (FIG. 16A) and cortex (FIG. 16B).

[4] = test system: CNS infiltrating leukocytes in EAE C57BL/6 (B6) mice; assay: CNS infiltrating cells in EAE B6 mice (FACS); format: in vivo; settings: day 20 after immunization, vs vehicle control
Protocol: To determine whether a RXR agonist can reduce central nervous system (CNS) infiltrating cells, C57BL/6 (B6) mice were treated as described in Example 6. On day 20 after immunization, mice were sacrificed and perfused with phosphate buffered saline (PBS). Brain and spinal cord tissue was isolated, digested with DNase and LIBERASE DL® (Roche Diagnostics, Indianapolis, Ind.) for 30 minutes, and homogenized through 70 micron nylon mesh filters. Resulting cells were placed over a Percoll gradient to remove myelin. The remaining cells (microglia and CNS infiltrating cells) were counted, stained for molecules of interest, and run on a flow cytometer. Based on the frequencies obtained by FACS of these cell populations, total cell numbers of CNS infiltrating leukocytes expressing CD45, including CD4^+ T cells and CD11c^+ CD11b^+ myeloid dendritic cells (DC), were calculated.

[5] = test system: experimental autoimmune encephalomyelitis (EAE) in C57BL/6 (B6) mice; assay: EAE in B6 mice (MOG peptide), disease severity score; format: in vivo; settings: IRX4204 50 μg every other day from day 7 to day 20; vs vehicle
Protocol: Mice were also given 200 ng of pertussis toxin in PBS administered by inter-peritoneal (i.p.) injection on the same day as MOG emulsion injection (day 0) and 2 days later (day 2). […] Mice were scored using the following scale: 0—Mice have no disease, 1—Mice have distal limp tail or rear leg weakness (paresis), 1.5—Mice have distal limp tail and rear leg weakness, 2—Mice have complete limp tail and rear leg weakness, 2.5—Mice have complete limp tail and weakness in both rear legs, 3—Mice have complete limp tail and paralysis in both rear legs, 3.5—Mice have complete limp tail, paralysis in both rear legs, and forelimb weakness. Mice receiving a score of 3.5 were immediately euthanized.

[6] = test system: cuprizone+rapamycin (CR) demyelination in C57BL/6J mice
Excerpt: Animals (8 week-old male C57BL/6J mice) were subjected to cuprizone diet plus rapamycin injections (CR) for 6 weeks to induce demyelination. […] All animals were sacrificed after 6 weeks of CR to evaluate axonal integrity and microglial/macrophage activity in the white matter (corpus callosum, CC).
A total of 50 animals were included in the study, where 43 animals received CR demyelination for 6 weeks. During demyelination, a subset (n=7) of animals were kept on normal diet to serve as naïve age-matched controls.
To assess thyroid hormone levels, terminal blood draws were taken to quantify the levels of T4.

[7] = test system: oligodendrocyte precursor cells (OPCs); assay: OPC differentiation into oligodendrocytes (PLP-EGFP, Example 7); format: cell-based, mouse; settings: compared to negative control (DMSO)
Excerpt: OPCs were generated from a neurosphere culture of E14.5 PLP-EGFP (on C57BL/6J background) mouse brains. […] The EGFP expressing cells were quantified with Cellomics Neuronal Profiling Algorithm.
The EGFP expressing cells in controls and all compounds were quantified with Cellomics Neuronal Profiling Algorithm.

LXRβ/RXR = LXRβ/RXR transactivation assay (CV-1 cells); format: cell-based; settings: 20 hr; relative to T0901317
Excerpt: as §1

EAE in B6 mice = assay: EAE dose titration in B6 mice with spleen and CNS flow analysis; format: in vivo
Protocol: A dose titration experiment was also conducted in EAE mice. EAE was induced in 28 B6 mice with MOG/CFA and PT as above. Mice were scored on day 7 as indicated above and divided into groups by score so means are as equal as possible.
At the completion of the experiment, the vehicle control and 200 μg/day groups were euthanized and spleen and CNS samples obtained.

[8] = CNS, restimulation with PMA/Ionomycin, 200 μg/day vs vehicle

N[C@@H](Cc1cc(I)c(Oc2ccc(O)c(I)c2)c(I)c1)C(=O)O [Compound T3, triiodothyronine, reference compound]
oligodendrocyte production (EGFP+ oligodendrocytes) [1]: clear dose-responses

CC(/C=C/[C@@H]1C[C@]1(C)c1ccc2c(c1)C(C)(C)CCC2(C)C)=C\C(=O)O [IRX4204, 3,7-dimethyl-6(S),7(S)-methano,7-[1,1,4,4-tetramethyl-1,2,3,4-tetrahydronaphth-7-yl]2(E),4(E) heptadienoic acid]
symptoms of EAE (disease severity score) (EAE in SJL mice; 50 μg i.p. every other day from day 7 to day 14): significantly reduces the symptoms of EAE
Death from Disease (EAE in SJL mice; 50 μg i.p. every other day, n=6): 0/6
activation of Nurr1/RXR heterodimer (Nurr1/RXR heterodimer): selectively activates the Nurr1/RXR permissive heterodimer; also recorded: selectively activates RXR-Nurr1 heterodimers
Mbp expression (real-time qPCR of lesion samples) [2]: increase
Pdgfra expression (real-time qPCR of lesion samples) [2]: increase
remyelinated axons (ultrastructural analyses of CCP lesions) [2]: more remyelinated axons than vehicle treatment
Nkx2.2+ oligodendrocyte precursor cells (OPCs) in lesions ([2]; vs vehicle): increased
density of CC1+ differentiated oligodendrocytes in lesions ([2]; vs vehicle): increased
density of Olig2+ oligodendrocyte lineage cells in lesions ([2]; vs vehicle): increased
activation of LXRα/RXR (LXRα/RXR): not to transactivate; also recorded: does not activate
more potent in activating RXR receptors rather than RAR receptors (RXRα): > 1,000 fold
body weight ([3]; 10 mg/kg PO daily for 6 weeks after 12 weeks CR): no significant difference
size of myelinated axons in the corpus callosum ([3]; 6 weeks of treatment after 12 weeks CR): significantly increases; also recorded: shift in distribution to larger axon diameter
size of axons in the upper quartile ([3]; 6 weeks of treatment, 3rd quartile, axons about 0.7 μm, P<0.0001): significant increase
infiltration of CD4+ cells in to the CNS [4]: significant reduction
infiltration of CD11c+ CD11b+ cells (myeloid DC) in to the CNS [4]: significant reduction
symptoms of EAE (disease severity score) [5]: significantly reduces the symptoms of EAE
microglial/macrophage activation (Iba1 staining in CC) ([6]; 6 weeks concurrent treatment, vs vehicle): no difference
terminal body weights ([6]; ANOVA, vs vehicle): no significant difference
number of SMI32 positive axonal ovoids in the corpus callosum ([6]; IRX4204 10 mg/kg PO, T4 20 ng/g SQ daily for 6 weeks during CR, vs Vehicle, 10 mg/kg): trend towards decreased number of axonal ovoids but was not statistically different from the Vehicle; also recorded: trend towards decrease in axonal ovoids, but it was statistically not different from vehicle
mortality during the in-life phase ([6]; mouse, in vivo): no mortality
decrease in T4 levels compared to vehicle control animals ([6]; terminal blood draws): ~50%
OPC differentiation into oligodendrocytes (number of EGFP positive cells) [7]: significant increase; also recorded: dose dependent increase
oligodendrocyte production (EGFP+ oligodendrocytes) [1]: clear dose-responses
activation of LXRβ/RXR (LXRβ/RXR): not to transactivate; also recorded: does not activate
EAE disease overall (EAE in B6 mice; 50 μg, 100 μg, or 200 μg every day from day 8, vs vehicle): significantly less disease overall
Co-expression of IFNg and IL-17A by CD4 T cells in CNS (EAE in B6 mice; CNS, 200 μg/day vs vehicle): not significantly different between groups
total number of infiltrating CD4 T cells in the CNS (EAE in B6 mice; CNS, 200 μg/day vs vehicle): reduced
IFNγ production by CNS infiltrating lymphocytes (EAE in B6 mice; [8]): significantly reduced
TNF production by CNS infiltrating lymphocytes (EAE in B6 mice; [8]): significantly reduced
CCR6 expression on CD4 T cells (EAE in B6 mice; spleen, 200 μg/day vs vehicle): lowered CCR6
CD4+ CD25hi cells (number) (EAE in B6 mice; spleen, 200 μg/day vs vehicle): reduced
CD4+ CD25hi cells frequency (EAE in B6 mice; spleen, 200 μg/day vs vehicle): not altered
CD49d expression on CD4 T cells (EAE in B6 mice; spleen, 200 μg/day vs vehicle): but not CD49d
total number of effector and memory CD4 T cells (CD44 expression) (EAE in B6 mice; spleen, 200 μg/day vs vehicle): decreased
total number of recently activated CD4 T cells (CD69 and CD44) (EAE in B6 mice; spleen, 200 μg/day vs vehicle): also decreased
